Measurements published in patent US20150218172A1, “Pyrrolo[2,3-D]Pyrimidine Tropomyosin-Related Kinase Inhibitors” (PFIZER LIMITED, priority 2012, published 2015).

Target: T1, TrkA (Homo sapiens, UniProt P04629)
T1 construct: aa 441-796; His; purchased Invitrogen PV3144
Test: Isolated TRK enzyme assay (HTRF KinEASE-TK kit), PV3144 TrkA enzyme assay
Assay type: biochemical
Conditions: PV3144 TrkA enzyme assay, recombinant His-tagged cytoplasmic domain aa 441-796, 4 nM enzyme, 40 uM ATP; arithmetic mean where more than one reading; read-out: Trka enzyme (IC50)
Procedure, shortened: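 HTRF KinEASE tyrosine-phosphorylation readout (665/620 nm ratio) on a 1 uM biotinylated substrate after reaction with preactivated His-tagged TrkA cytoplasmic domain plus ATP and MgCl2/DTT buffer. Compound preincubated 20 min with enzyme; IC50 from log-concentration sigmoid curve, averaged where repeated.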

T1 sequence (P04629 441-796): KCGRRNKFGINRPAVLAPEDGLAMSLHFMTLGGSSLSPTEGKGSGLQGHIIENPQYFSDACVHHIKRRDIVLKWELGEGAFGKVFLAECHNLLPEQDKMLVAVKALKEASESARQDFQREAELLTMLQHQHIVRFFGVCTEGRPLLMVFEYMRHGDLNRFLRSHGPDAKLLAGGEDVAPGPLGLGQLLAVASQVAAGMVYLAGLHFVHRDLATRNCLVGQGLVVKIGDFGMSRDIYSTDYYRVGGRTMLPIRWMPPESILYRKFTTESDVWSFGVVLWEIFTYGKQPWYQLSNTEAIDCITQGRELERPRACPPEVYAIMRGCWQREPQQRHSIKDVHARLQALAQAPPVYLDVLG

Row | Structure (SMILES) | IC50 [nM]
1 | Cc1cc(C(F)(F)F)nn1CC(=O)Nc1ccnc(C(=O)c2cn(C(C)(CO)CO)c3ncncc23)c1 [Example 108, N-(2-{[7-(1,3-dihydroxy-2-methylpropan-2-yl)-7H-pyrrolo[2,3-d]pyrimidin-5-yl]carbonyl}pyridin-4-yl)-2-[5-methyl-3-(trifluoromethyl)-1H-pyrazol-1-yl]acetamide] | 369
2 | CC1(n2cc(C(=O)c3cc(NC(=O)Cc4ccc(C#N)cc4)ccn3)c3cncnc32)COC1 [Example 169, 2-(4-cyanophenyl)-N-(2-{[7-(3-methyloxetan-3-yl)-7H-pyrrolo[2,3-d]pyrimidin-5-yl]carbonyl}pyridin-4-yl)acetamide] | 459
3 | Cc1cn(CC(=O)Nc2cc(C(=O)c3cn(C(C)C)c4ncncc34)ccn2)nn1 [Example 121, 2-(4-methyl-1H-1,2,3-triazol-1-yl)-N-(4-{[7-(propan-2-yl)-7H-pyrrolo[2,3-d]pyrimidin-5-yl]carbonyl}pyridin-2-yl)acetamide] | 328
4 | O=C(Cc1ccc(Cl)cc1)Nc1cc(C(=O)c2cn([C@H]3CC[C@@H](O)CC3)c3ncncc23)ccn1 [Example 6, 2-(4-chlorophenyl)-N-(4-{[7-(cis-4-hydroxycyclohexyl)-7H-pyrrolo[2,3-d]pyrimidin-5-yl]carbonyl}pyridin-2-yl)acetamide] | 21.3
5 | CC(C)n1cc(C(=O)c2ccnc(NC(=O)Cc3ccc(C#N)cn3)c2)c2cncnc21 [Example 62, 2-(5-Cyanopyridin-2-yl)-N-{4-[(7-isopropyl-7H-pyrrolo[2,3-d]pyrimidin-5-yl)carbonyl}pyridin-2-yl]acetamide] | 34.3
6 | CC1(n2cc(C(=O)c3cc(NC(=O)Cc4cccc(C(F)(F)F)c4)ccn3)c3cncnc32)COC1 [Example 166, N-(2-{[7-(3-methyloxetan-3-yl)-7H-pyrrolo[2,3-d]pyrimidin-5-yl]carbonyl}pyridin-4-yl)-2-[3-(trifluoromethyl)phenyl]acetamide] | 52.9
7 | CC(C)n1cc(C(=O)c2ccnc(NC(=O)Cc3cccc(OC(F)(F)F)c3)c2)c2cncnc21 [Example 154, N-(4-{[7-(propan-2-yl)-7H-pyrrolo[2,3-d]pyrimidin-5-yl]carbonyl}pyridin-2-yl)-2-[3-(trifluoromethoxy)phenyl]acetamide] | 12.4
8 | O=C(Cc1ccc(F)cc1)Nc1cc(C(=O)c2cn(CCO)c3ncncc23)ccn1 [Example 145, 2-(4-fluorophenyl)-N-(4-{[7-(2-hydroxyethyl)-7H-pyrrolo[2,3-d]pyrimidin-5-yl]carbonyl}pyridin-2-yl)acetamide] | 484
